From paper PMC9692703 (2022)

Assays:
[1] = tested on: Adenosine aptamer (Aptade), 4 bp (DNA, aptamer) ACCTGGGGGAGTATTGCGGAGGAAGGT; experiment: ThT fluorescence enhancement; settings: 100 mM NaCl, 10 mM MgCl2; 10 mM PB pH 7; 100 nM aptamer
[2] = tested on: A30/T30 duplex (DNA, duplex) AAAAAAAAAAAAAAAAAAAAAAAAAAAAAA/TTTTTTTTTTTTTTTTTTTTTTTTTTTTTT; experiment: SGI staining fluorescence; settings: 100 mM NaCl; 10 mM PB pH 7; 100 nM DNA, 0.5x SGI

Row | Structure (SMILES) | binding [1] | binding [2]
1 | Cc1ccc2c(c1)sc(-c1ccc(N(C)C)cc1)[n+]2C | yes | –
2 | CCCN(CCCN(C)C)c1cc(C=C2Sc3ccccc3N2C)c2ccccc2[n+]1-c1ccccc1 | – | yes
